# Measured values from ChEMBL document CHEMBL1201862, “PubChem BioAssay data set” (2004).
# The source made the active and inactive calls.
# Assays:
# [1] = biological target: T1, Short transient receptor potential channel 4 (Mus musculus, UniProt Q9QUQ5); assay: TRPC4 positive allosteric modulators, dose response, cell-based, HEK293 TRPC4/mu-opioid, Fluo-4 calcium, EC20 DAMGO (AID 434941); assay type: functional
# T1 sequence (Q9QUQ5 whole entry): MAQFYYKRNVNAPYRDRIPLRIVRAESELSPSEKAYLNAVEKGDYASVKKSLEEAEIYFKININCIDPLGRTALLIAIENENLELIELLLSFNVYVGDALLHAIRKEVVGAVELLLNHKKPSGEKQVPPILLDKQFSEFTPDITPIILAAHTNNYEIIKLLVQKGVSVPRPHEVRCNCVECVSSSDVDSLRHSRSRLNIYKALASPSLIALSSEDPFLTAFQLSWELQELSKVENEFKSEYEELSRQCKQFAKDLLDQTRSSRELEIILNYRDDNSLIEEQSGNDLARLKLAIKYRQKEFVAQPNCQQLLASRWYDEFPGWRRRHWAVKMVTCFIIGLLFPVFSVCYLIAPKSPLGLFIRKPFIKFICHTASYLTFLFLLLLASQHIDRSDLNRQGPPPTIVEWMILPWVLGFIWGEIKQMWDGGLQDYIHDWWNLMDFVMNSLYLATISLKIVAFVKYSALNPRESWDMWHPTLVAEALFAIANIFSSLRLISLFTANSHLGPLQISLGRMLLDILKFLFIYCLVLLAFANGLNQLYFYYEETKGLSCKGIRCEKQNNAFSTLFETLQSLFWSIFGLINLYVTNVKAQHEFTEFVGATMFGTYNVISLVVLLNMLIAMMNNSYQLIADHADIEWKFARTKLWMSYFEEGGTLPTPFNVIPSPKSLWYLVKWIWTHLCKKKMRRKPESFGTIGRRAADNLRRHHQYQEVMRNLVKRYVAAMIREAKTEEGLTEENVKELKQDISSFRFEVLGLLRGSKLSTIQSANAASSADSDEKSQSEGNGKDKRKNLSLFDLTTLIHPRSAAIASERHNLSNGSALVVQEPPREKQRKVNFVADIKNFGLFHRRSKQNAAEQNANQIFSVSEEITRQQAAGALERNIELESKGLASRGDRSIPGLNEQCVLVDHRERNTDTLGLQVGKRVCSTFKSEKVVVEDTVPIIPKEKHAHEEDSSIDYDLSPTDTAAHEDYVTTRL
# [2] = A Cell Based Secondary Assay To Explore Cytotoxicity of Compounds that Sensitize Mycobacterium Tuberculosis to Beta-Lactam Antibiotics.; assay type: functional
# HEK293 [3] = assay: cells; settings: Homo sapiens
# Galanin receptor type 3 = biological target: T2, Galanin receptor type 3 (Homo sapiens, UniProt O60755); assay: Fluorescence-based cell-based primary high throughput dose response assay to identify antagonists of the Galanin Receptor 3 (GalR3).; assay type: functional
# T2 sequence (O60755 whole entry): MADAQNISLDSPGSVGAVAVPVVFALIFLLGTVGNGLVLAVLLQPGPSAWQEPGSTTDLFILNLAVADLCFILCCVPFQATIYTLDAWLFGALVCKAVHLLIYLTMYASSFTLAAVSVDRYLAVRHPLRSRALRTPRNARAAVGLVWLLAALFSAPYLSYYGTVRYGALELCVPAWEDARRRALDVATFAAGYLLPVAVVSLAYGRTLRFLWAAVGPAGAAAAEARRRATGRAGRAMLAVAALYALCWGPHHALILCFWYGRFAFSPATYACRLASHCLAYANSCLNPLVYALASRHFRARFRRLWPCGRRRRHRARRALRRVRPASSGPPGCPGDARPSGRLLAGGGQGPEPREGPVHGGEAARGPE
# INS1 = assay: beta cell apoptosis inhibitors, cytokine rescue, dose response, luminescence, retest (AID 449756); assay type: functional, cell-based; settings: Rattus norvegicus;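 further: cell death triggered by IL-1 beta plus TNF-alpha plus IFN-gamma mixture; protective hits raise ATP signal compared with cytokine alone wells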
# [4] = biological target: T3, Nucleotide-binding oligomerization domain-containing protein 1 (Homo sapiens, UniProt Q9Y239); assay: NOD1 signaling inhibitors, SAR follow-up, revised (AID 2333); assay type: functional
# T3 sequence (Q9Y239 whole entry): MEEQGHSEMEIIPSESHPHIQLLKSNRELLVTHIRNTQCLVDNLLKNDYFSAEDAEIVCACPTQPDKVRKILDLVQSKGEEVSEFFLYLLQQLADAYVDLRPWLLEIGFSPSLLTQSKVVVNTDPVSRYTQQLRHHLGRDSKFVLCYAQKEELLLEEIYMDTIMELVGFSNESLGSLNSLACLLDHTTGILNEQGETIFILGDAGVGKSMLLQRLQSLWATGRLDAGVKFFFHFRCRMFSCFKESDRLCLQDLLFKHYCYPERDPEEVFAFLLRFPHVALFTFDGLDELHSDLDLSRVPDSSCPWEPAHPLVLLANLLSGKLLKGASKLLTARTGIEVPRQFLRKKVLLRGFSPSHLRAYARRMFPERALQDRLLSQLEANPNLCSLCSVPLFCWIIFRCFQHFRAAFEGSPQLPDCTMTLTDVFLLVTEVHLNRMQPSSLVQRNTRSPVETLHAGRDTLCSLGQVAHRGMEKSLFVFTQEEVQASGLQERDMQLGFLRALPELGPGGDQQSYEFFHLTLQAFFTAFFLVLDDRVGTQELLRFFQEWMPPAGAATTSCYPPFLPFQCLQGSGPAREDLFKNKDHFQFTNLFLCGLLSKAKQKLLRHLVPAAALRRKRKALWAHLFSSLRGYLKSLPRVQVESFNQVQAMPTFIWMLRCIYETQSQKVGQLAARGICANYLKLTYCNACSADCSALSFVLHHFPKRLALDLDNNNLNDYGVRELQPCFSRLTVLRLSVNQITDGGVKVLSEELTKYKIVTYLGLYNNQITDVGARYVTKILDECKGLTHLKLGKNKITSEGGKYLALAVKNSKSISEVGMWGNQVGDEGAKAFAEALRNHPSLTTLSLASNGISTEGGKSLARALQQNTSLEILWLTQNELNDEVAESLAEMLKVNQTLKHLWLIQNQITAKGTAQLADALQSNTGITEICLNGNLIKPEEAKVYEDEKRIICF
# cells [5] = assay type: functional, cell-based; settings: HEK-CNG
# [6] = cytotoxicity in HEK-293T NF-kB-Luc cells, dose response, cytotoxicity control for B/T-cell NF-kB inhibitor project, cell-based, uHTS hits (AID 489019); assay type: functional;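 further: IC50 reflects cytotoxicity as loss of cell viability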
# Tumor necrosis factor = Tumor necrosis factor (Homo sapiens, UniProt P01375); assay: TNFa-triggered NF-kB activation inhibitors, SAR follow-up, cell-based, revised (AID 2337); assay type: functional
# Jurkat = assay: antigen receptor-induced NF-kB inhibitors, dose response, Jurkat, luciferase reporter, luminescence, B- and T-cell (AID 489004); assay type: functional, cell-based; settings: Homo sapiens;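 further: NF-kB luciferase reporter Jurkat cells stimulated with PMA plus ionomycin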
# Trypsin = Trypsin (Sus scrofa, UniProt P00761); assay: porcine trypsin inhibitors, dose response, selectivity assay for Rce1 protease inhibitor project, biochemical, quenched peptide fluorescence, cherry-pick (AID 488789)
# cells [7] = assay type: functional
# fMet-Leu-Phe receptor = biological target: T4, fMet-Leu-Phe receptor (Homo sapiens, UniProt P21462); assay: FPR ligands, dose response (AID 519); assay type: functional
# T4 sequence (P21462 whole entry): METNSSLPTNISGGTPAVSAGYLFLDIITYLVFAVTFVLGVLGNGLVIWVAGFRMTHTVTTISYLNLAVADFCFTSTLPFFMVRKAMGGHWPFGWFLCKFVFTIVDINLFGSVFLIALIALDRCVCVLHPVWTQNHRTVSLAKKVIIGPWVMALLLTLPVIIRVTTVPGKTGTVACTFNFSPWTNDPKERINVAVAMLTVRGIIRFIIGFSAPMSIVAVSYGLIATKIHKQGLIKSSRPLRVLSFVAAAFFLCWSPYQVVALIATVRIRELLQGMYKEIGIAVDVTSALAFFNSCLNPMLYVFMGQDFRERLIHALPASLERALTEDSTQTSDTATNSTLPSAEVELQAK
# CAAX prenyl protease 2 = CAAX prenyl protease 2 (Saccharomyces cerevisiae S288c, UniProt Q03530); assay type: biochemical
# [8] = biological target: DNA dC->dU-editing enzyme APOBEC-3A (Homo sapiens, UniProt P31941); assay: Dose Response confirmation of small molecule APOBEC3A DNA Deaminase Inhibitors via a fluorescence-based single-stranded DNA deaminase assay. [Related pubchem assays (depositor defined):AID493011, AID493024]; assay type: functional
# [9] = biological target: DNA dC->dU-editing enzyme APOBEC-3G (Homo sapiens, UniProt Q9HC16); assay type: functional;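 further: Dose-response counterscreen measuring inhibition of APOBEC3G DNA deaminase activity, run while confirming APOBEC3A inhibitors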
# [10] = biological target: Eukaryotic translation initiation factor 4E (Mus musculus, UniProt P63073); assay: eIF4E–eIF4G protein interaction inhibitors, dose response, biochemical, TR-FRET (AID 855); assay type: functional;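 further: potency for disrupting eIF4E binding to eIF4GI seen as loss of FRET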
# [11] = biological target: T5, Kappa-type opioid receptor (Homo sapiens, UniProt P41145); assay: SAR analysis of small molecule agonists of the kappa opioid receptor via a luminescent beta-arrestin assay - Set 3. [Related pubchem assays (depositor defined):AID1777, AID1785, AID1786, AID1966, AID2133, AID2136, AID2284, AID2500]; assay type: functional
# [12] = biological target: T5, Kappa-type opioid receptor; assay: KOR agonist analogs, arrestin-GFP redistribution, SAR follow-up, imaging, image-based, set 3 (AID 488833); assay type: functional
# Mu-type opioid receptor = Mu-type opioid receptor (Homo sapiens, UniProt P35372); assay: SAR Analysis of Agonists of the MOR Receptor using an Image-Based Assay - Set 3. [Related pubchem assays (depositor defined):AID1777, AID1785, AID1786, AID1966, AID2133, AID2136, AID2284, AID2285, AID2352]; assay type: functional
# [13] = biological target: Delta-type opioid receptor (Homo sapiens, UniProt P41143); assay: SAR Analysis of Agonists of the DOR Receptor using an Image-Based Assay - Set 3. [Related pubchem assays (depositor defined):AID1777, AID1786]; assay type: functional
# [14] = biological target: T6, Dual specificity protein phosphatase 6 (Rattus norvegicus, UniProt Q64346); assay type: functional;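 further: confirmatory in vitro dose-response testing of MKP-3 inhibition; recombinant His-tagged MKP-3 made in E. coli BL21 with OMFP substrate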
# T6 sequence (Q64346 whole entry): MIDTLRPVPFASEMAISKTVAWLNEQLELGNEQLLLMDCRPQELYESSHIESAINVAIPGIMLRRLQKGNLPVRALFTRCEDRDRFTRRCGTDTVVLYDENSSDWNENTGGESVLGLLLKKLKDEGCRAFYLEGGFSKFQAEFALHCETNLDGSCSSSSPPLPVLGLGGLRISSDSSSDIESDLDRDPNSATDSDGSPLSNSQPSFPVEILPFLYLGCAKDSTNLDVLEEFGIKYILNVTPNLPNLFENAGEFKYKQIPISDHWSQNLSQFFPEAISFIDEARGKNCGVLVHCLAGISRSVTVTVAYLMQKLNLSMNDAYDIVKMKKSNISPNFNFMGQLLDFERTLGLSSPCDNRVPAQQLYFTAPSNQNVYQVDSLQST
# [15] = biological target: T7, Tyrosine-protein phosphatase non-receptor type 7 (Homo sapiens, UniProt P35236); assay: redox-dependent HePTP inhibition, mechanism study, biochemical, fluorescence (AID 2068); assay type: functional
# T7 sequence (P35236 whole entry): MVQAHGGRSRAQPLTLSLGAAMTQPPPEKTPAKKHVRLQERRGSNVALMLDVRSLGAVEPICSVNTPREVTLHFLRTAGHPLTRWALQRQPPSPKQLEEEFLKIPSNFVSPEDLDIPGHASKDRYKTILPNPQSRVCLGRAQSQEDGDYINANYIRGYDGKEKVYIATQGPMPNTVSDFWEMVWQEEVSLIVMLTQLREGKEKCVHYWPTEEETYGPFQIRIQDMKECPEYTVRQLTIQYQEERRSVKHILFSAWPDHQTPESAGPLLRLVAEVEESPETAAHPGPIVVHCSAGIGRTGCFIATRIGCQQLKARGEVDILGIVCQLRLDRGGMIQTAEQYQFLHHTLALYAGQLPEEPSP
# HEK293 [16] = assay: cytotoxicity in HEK293T NF-kB-Luc cells, SAR follow-up, cytotoxicity control for NF-kB activator project, cell-based, resazurin fluorescence (AID 493251); assay type: functional; settings: Homo sapiens
# T5 sequence (P41145 whole entry): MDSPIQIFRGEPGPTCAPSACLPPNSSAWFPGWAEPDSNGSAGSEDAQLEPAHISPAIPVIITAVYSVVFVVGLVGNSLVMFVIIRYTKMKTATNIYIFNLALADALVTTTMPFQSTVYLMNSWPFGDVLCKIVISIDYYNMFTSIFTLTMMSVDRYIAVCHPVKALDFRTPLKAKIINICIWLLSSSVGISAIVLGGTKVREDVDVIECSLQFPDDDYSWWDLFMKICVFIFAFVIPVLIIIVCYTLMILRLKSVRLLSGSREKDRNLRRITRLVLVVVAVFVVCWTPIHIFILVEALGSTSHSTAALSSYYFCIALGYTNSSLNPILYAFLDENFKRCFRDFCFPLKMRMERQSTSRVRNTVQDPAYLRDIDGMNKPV
# Chain of Mu-type opioid receptor (P35372 whole entry): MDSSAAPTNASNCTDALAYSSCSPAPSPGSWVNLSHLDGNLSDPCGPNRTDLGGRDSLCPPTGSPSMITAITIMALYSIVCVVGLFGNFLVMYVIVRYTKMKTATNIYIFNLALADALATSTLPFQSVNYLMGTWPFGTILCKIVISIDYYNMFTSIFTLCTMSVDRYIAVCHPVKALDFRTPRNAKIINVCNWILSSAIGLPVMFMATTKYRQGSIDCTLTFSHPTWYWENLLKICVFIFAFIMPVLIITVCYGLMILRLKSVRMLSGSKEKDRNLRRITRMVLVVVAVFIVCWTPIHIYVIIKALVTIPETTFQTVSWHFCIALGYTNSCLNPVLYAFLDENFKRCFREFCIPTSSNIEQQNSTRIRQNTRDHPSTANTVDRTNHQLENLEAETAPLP
# Chain of Trypsin (P00761 whole entry): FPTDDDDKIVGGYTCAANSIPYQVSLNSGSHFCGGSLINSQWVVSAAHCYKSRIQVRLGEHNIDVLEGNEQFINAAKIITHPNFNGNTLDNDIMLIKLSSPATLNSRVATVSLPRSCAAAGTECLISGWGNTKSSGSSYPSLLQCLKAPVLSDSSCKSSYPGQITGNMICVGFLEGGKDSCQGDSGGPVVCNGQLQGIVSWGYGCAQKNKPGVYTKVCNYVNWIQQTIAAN
# Chain of Delta-type opioid receptor (P41143 whole entry): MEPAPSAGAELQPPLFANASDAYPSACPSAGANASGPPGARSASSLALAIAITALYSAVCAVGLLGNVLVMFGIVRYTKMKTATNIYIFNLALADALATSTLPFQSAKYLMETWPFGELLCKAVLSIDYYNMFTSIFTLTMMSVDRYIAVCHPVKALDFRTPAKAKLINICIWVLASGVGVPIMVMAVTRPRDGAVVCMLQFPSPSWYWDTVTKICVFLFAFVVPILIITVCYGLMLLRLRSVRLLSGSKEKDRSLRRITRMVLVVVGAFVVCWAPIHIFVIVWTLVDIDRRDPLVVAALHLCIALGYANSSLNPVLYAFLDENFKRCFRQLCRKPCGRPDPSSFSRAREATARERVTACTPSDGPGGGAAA
# Chain of CAAX prenyl protease 2 (Q03530 whole entry): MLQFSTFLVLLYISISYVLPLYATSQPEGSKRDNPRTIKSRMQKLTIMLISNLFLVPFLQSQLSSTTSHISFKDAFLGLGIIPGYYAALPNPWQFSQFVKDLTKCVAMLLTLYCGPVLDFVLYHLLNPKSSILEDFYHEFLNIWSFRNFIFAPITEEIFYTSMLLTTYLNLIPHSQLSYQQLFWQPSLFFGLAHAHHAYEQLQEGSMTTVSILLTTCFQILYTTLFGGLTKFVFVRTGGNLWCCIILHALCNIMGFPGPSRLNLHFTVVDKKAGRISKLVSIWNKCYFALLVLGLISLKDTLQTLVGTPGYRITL
# Chain of DNA dC->dU-editing enzyme APOBEC-3G (Q9HC16 whole entry): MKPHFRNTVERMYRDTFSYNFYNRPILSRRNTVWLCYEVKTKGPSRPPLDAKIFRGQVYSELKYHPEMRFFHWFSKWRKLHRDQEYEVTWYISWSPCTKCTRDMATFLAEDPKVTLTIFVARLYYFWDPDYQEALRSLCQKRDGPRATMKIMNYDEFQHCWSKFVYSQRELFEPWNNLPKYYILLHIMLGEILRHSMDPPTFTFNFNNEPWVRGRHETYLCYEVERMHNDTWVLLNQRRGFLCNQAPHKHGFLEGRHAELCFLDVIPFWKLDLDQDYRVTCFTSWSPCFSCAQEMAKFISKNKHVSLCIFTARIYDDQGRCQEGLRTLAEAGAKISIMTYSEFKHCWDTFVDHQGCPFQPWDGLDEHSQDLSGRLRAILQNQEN
# Chain of DNA dC->dU-editing enzyme APOBEC-3A (P31941 whole entry): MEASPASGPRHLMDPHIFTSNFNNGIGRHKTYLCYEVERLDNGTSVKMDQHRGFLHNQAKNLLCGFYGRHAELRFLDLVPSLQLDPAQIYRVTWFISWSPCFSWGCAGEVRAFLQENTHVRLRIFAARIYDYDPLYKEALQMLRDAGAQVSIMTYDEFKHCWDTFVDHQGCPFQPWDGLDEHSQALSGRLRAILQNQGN
# Chain of Eukaryotic translation initiation factor 4E (P63073 whole entry): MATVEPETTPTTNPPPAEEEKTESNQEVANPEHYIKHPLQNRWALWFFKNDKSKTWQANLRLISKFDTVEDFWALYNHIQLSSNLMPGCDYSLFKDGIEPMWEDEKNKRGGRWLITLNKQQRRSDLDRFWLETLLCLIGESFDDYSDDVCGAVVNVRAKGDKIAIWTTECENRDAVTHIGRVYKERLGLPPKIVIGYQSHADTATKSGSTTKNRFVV
# Chain of Tumor necrosis factor (P01375 whole entry): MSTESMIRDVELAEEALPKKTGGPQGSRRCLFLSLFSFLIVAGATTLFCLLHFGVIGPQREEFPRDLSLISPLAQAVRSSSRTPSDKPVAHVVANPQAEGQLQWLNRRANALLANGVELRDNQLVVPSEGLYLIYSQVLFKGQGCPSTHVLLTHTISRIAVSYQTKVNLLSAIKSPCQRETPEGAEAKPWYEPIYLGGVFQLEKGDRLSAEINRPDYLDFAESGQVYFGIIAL
smiles,measurement,setting,value
CCN1CCN(Cc2cc(Br)ccc2O)CC1,EC50,[1],0.21 µM (active)
Cc1cccc(Cn2c(N3CCN(c4ccccc4)CC3)nc3c2c(=O)n(C)c(=O)n3C)c1,EC50,[1],0.84 µM (active)
same,CC50,[2],> 40 µM (active)
Cn1nccc1C(=O)NC1CCCc2c1cnn2-c1ccc(F)cc1F (stereo unspecified),IC50,HEK293 [3],> 20 µM (inactive)
same,IC50,Galanin receptor type 3,0.24 µM (active)
same,AC50,INS1,1.44 µM (active)
same,IC50,[4],0.677 µM (active)
same,EC50,cells [5],> 29.9 µM (inactive)
same,IC50,[6],> 80 µM (inactive)
same,IC50,Tumor necrosis factor,0.712 µM (active)
same,IC50,Jurkat,> 80 µM (inactive)
CCCc1cc(O)n2nc(C)c(-c3ccccc3)c2n1,AC50,Trypsin,5.36 µM (active)
same,IC50,cells [7],46.5 µM (active)
same,Ki,fMet-Leu-Phe receptor,> 66.7 µM (inactive)
same,AC50,CAAX prenyl protease 2,22.3 µM (active)
COc1ccc2cc(C(=O)C3CCCN(C(=O)CCc4cnn(C)c4)C3)ccc2c1 (stereo unspecified),AC50,Trypsin,11.5 µM (active)
same,AC50,CAAX prenyl protease 2,19.5 µM (active)
O=C(C[n+]1c2n(c3ccc(C(F)(F)F)cc31)CCCCC2)Nc1ccccc1,IC50,[8],2.76 µM (active)
same,IC50,[9],3.79 µM (active)
same,IC50,[10],> 64 µM (inactive)
Cc1ccccc1CSc1nnc(-c2ccccn2)n1Cc1ccco1,EC50,[11],17.7 µM (inactive)
same,EC50,[12],28.7 µM (inactive)
same,EC50,Mu-type opioid receptor,> 32 µM (inactive)
same,EC50,[13],> 64 µM (inactive)
CCN1CCN(C(=S)c2ccc(O)c(OC)c2)CC1,IC50,[14],> 100 µM (inactive)
same,IC50,[15],74.5 µM (active)
Cc1c(CSc2nnc(-c3ccccn3)n2Cc2cccs2)cccc1[N+](=O)[O-],EC50,[11],5.82 µM (active)
same,EC50,[12],4.15 µM (active)
same,EC50,Mu-type opioid receptor,> 32 µM (inactive)
same,EC50,[13],> 32 µM (inactive)
CC(C)(C)c1ccc(-c2noc(CCC(=O)NC3CC3)n2)cc1,IC50,HEK293 [16],> 80 µM (inactive)
